Experimental data reported in BindingDB's records for doi:10.1021/jm00402a012 (Harvard Medical School, 1988).

Test: Inhibition of Folyl-polyglutamate synthase from mouse liver

Ki	Structure (SMILES)
45 µM	Nc1nc(N)c2nc(CNc3ccc(C(=O)NC(CCS(=O)(=O)O)C(=O)O)cc3)cnc2n1 (stereo not drawn) [2-{4-[(2,4-Diamino-pteridin-6-ylmethyl)-amino]-benzoylamino}-4-sulfo-butyric acid]
185 µM	CN(Cc1cnc2nc(N)nc(N)c2n1)c1ccc(C(=O)NC(CCP(=O)(O)O)C(=O)O)cc1 (stereo not drawn) [2-{4-[(2,4-Diamino-pteridin-6-ylmethyl)-methyl-amino]-benzoylamino}-4-phosphono-butyric acid]
188 µM	CN(Cc1cnc2nc(N)nc(N)c2n1)c1ccc(C(=O)NC(CCS(=O)(=O)O)C(=O)O)cc1 (stereo not drawn) [2-{4-[(2,4-Diamino-pteridin-6-ylmethyl)-methyl-amino]-benzoylamino}-4-sulfo-butyric acid]
